In article PMC5719408, “Multivalent cross-linking of actin filaments and microtubules through the microtubule-associated protein Tau” (Nature Communications, 2017):
Entries after “also recorded” stand apart in the source; their conditions may differ.

Experiments:
F-actin [1] = assay: Protein co-sedimentation / actin bundling (differential centrifugation, SDS gel); assay type: biochemical, human; conditions: co-sedimentation; F-actin with Tau (1:1) or Tau peptides (1:10; Tau(254–268) 1:30), room temperature 30 min
Experimental: The ability of Tau to bundle F-actin was studied using electron microscopy (EM). […] Next, Tau/F-actin co-sedimentation was performed. The same sample, which was used for EM, was exposed to two sequential steps of centrifugation, in which single-actin filaments and actin bundles were collected separately. Subsequently, aliquots from supernatant (SN), filament (PF), and bundle (PB) fractions were loaded in a 4–20% gradient gel (Fig. 1c).
The sample was then dialyzed against General Actin Buffer (GAB; 5 mM TrisHCl pH 8.0, 0.2 mM CaCl2, 0.2 mM ATP, 0.5 mM DTT) or NMR buffer (50 mM NaH2PO4/Na2HPO4 pH 6.8, 10 mM NaCl, 1 mM DTT, 10% (v/v) D2O) to be used for electron microscopy or NMR experiments, respectively. In case of actin, lyophilized actin was reconstituted to 10 mg ml^−1 by adding 100 μl of distilled water to be in the following buffer: GAB with 5% (w/v) sucrose and 1% (w/v) dextran. Subsequently, the sample was spun at 18,400 × g for 15 min, the supernatant was kept, and actin was polymerized by incubating 0.4 mg ml^−1 G-actin in GAB and supplemented with polymerization buffer (1/10th the volume; 100 mM Tris HCl pH 7.5, 20 mM MgCl2, 500 mM KCl, 10 mM ATP) for 1 h at room temperature. Afterwards, the sample was centrifuged at 100,000 × g during 1 h at 4 °C. Filaments were collected at the bottom of the ultracentrifuge tube. The pellet was then resuspended in GAB or NMR Buffer as required.
Mixtures of F-actin with Tau (1:1) or Tau peptides (1:10 molar ratio) were incubated at room temperature for 30 min. In case of the shorter peptide Tau(254–268), a 1:30 ratio was used. Centrifugation was performed in two steps. First, a spin rate of 5000 × g was used during 15 min to collect bundles of F-actin (PB) at the bottom of the tube. Secondly, the remaining sample was centrifuged at 100,000 × g during 1 h collecting actin filaments (PF). The final supernatant (SN) was also kept for later usage. Pellets were resuspended in 80 μl of GAB. A volume of 25 μl of sample were taken for EM while the remaining 55 μl were loaded in a 4–20% gradient SDS gel, which was colored with […] and denatured with SDS and heat.

F-actin [2] = assay: 2D 1H-15N HSQC NMR signal attenuation of Tau by F-actin; assay type: binding, human; conditions: Tau/F-actin molar ratio 1:1.5; compared with non-phosphorylated Tau
From the text: In order to identify residues in Tau that bind to F-actin, we used NMR spectroscopy. […] According to the resonance assignment of Tau[27], cross-peaks from residues such as S262, N265, and T319 were strongly attenuated. Other residues including T175 and T217 were less affected, and S46 and S64 were not perturbed. Figure 1f highlights the sequence specific intensity ratio of all non-overlapping cross-peaks of Tau in the presence and absence of F-actin. […] In contrast, residues, which are bound to F-actin, should have low (I bound/I free) values, because their resonances would—due to the high molecular weight of the complex—be attenuated. […] Consistent with this hypothesis, the cross-peaks of these residues were attenuated by F-actin also at higher ionic strength (Supplementary Fig. 3).
The sample was then dialyzed against General Actin Buffer (GAB; 5 mM TrisHCl pH 8.0, 0.2 mM CaCl2, 0.2 mM ATP, 0.5 mM DTT) or NMR buffer (50 mM NaH2PO4/Na2HPO4 pH 6.8, 10 mM NaCl, 1 mM DTT, 10% (v/v) D2O) to be used for electron microscopy or NMR experiments, respectively. In case of actin, lyophilized actin was reconstituted to 10 mg ml^−1 by adding 100 μl of distilled water to be in the following buffer: GAB with 5% (w/v) sucrose and 1% (w/v) dextran. […]

Substance: MARK2-phosphorylated Tau: full-length Tau phosphorylated by MARK2 at S262, S293, S305, S324, S356, and S416
- bundling of F-actin (F-actin [1]): failed in bundling actin filaments
- F-actin-induced NMR signal attenuation near phosphorylation sites / F-actin binding in words (F-actin [2]): little attenuation of NMR signals in vicinity of the phosphorylation sites; also recorded: attenuates its binding to F-actin
